In article PMC11704008 (Scientific Reports, 2025):
Converted amounts (≈) assume the structure as drawn. Like-named read-outs stand apart in the source and are kept apart here.

How the values were obtained:
[1] = type: physicochemical
[2] = type: physicochemical; remark: listed apart in the source

- y × 10^5 (mole fraction in ScCO2) ([1]; 313 K, 12 MPa, CO2 density 719.2 kg.m^−3): 2.481
- y × 10^5 (mole fraction in ScCO2) ([1]; 313 K, 15 MPa, CO2 density 781.2 kg.m^−3): 3.013
- y × 10^5 (mole fraction in ScCO2) ([1]; 313 K, 18 MPa, CO2 density 820.7 kg.m^−3): 3.942
- y × 10^5 (mole fraction in ScCO2) ([1]; 313 K, 21 MPa, CO2 density 850.4 kg.m^−3): 4.531
- y × 10^5 (mole fraction in ScCO2) ([1]; 313 K, 24 MPa, CO2 density 873.9 kg.m^−3): 5.520
- y × 10^5 (mole fraction in ScCO2) ([1]; 313 K, 27 MPa, CO2 density 893.5 kg.m^−3): 6.320
- y × 10^5 (mole fraction in ScCO2) ([1]; 313 K, 30 MPa, CO2 density 910.3 kg.m^−3): 7.652
- y × 10^5 (mole fraction in ScCO2) ([1]; 323 K, 12 MPa, CO2 density 587.2 kg.m^−3): 1.880
- y × 10^5 (mole fraction in ScCO2) ([1]; 323 K, 15 MPa, CO2 density 701.1 kg.m^−3): 3.390
- y × 10^5 (mole fraction in ScCO2) ([1]; 323 K, 18 MPa, CO2 density 758.8 kg.m^−3): 4.490
- y × 10^5 (mole fraction in ScCO2) ([1]; 323 K, 21 MPa, CO2 density 797.4 kg.m^−3): 5.910
- y × 10^5 (mole fraction in ScCO2) ([1]; 323 K, 24 MPa, CO2 density 826.1 kg.m^−3): 7.114
- y × 10^5 (mole fraction in ScCO2) ([1]; 323 K, 27 MPa, CO2 density 851.7 kg.m^−3): 7.790
- y × 10^5 (mole fraction in ScCO2) ([1]; 323 K, 30 MPa, CO2 density 871.5 kg.m^−3): 8.832
- y × 10^5 (mole fraction in ScCO2) ([1]; 333 K, 12 MPa, CO2 density 435.3 kg.m^−3): 1.520
- y × 10^5 (mole fraction in ScCO2) ([1]; 333 K, 15 MPa, CO2 density 606.8 kg.m^−3): 2.841
- y × 10^5 (mole fraction in ScCO2) ([1]; 333 K, 18 MPa, CO2 density 688.4 kg.m^−3): 5.090
- y × 10^5 (mole fraction in ScCO2) ([1]; 333 K, 21 MPa, CO2 density 740.3 kg.m^−3): 7.050
- y × 10^5 (mole fraction in ScCO2) ([1]; 333 K, 24 MPa, CO2 density 777.5 kg.m^−3): 8.125
- y × 10^5 (mole fraction in ScCO2) ([1]; 333 K, 27 MPa, CO2 density 806.7 kg.m^−3): 9.163
- y × 10^5 (mole fraction in ScCO2) ([1]; 333 K, 30 MPa, CO2 density 830.5 kg.m^−3): 9.960
- y × 10^5 (mole fraction in ScCO2) ([1]; 343 K, 12 MPa, CO2 density 346.1 kg.m^−3): 0.805
- y × 10^5 (mole fraction in ScCO2) ([1]; 343 K, 15 MPa, CO2 density 507.5 kg.m^−3): 2.043
- y × 10^5 (mole fraction in ScCO2) ([1]; 343 K, 18 MPa, CO2 density 613.5 kg.m^−3): 5.410
- y × 10^5 (mole fraction in ScCO2) ([1]; 343 K, 21 MPa, CO2 density 678.9 kg.m^−3): 7.484
- y × 10^5 (mole fraction in ScCO2) ([1]; 343 K, 24 MPa, CO2 density 724.9 kg.m^−3): 8.632
- y × 10^5 (mole fraction in ScCO2) ([1]; 343 K, 27 MPa, CO2 density 760.3 kg.m^−3): 10.061
- y × 10^5 (mole fraction in ScCO2) ([1]; 343 K, 30 MPa, CO2 density 788.9 kg.m^−3): 11.345
- solubility at 5 h ([1]; solubility S in ScCO2, range over all conditions, 12–30 MPa, 313–343 K): 13.4 to 428 µg/mL (≈ 63.4 to 2030 µM)
- solvation heat (ΔHsol) ([2]; difference between ΔHvap and ΔHtotal): -22.52 kJ/mol
- total heat (∆Htotal), Chrastil model ([2]; methyldopa in ScCO2): 34.35 kJ/mol
- vaporization heat (∆Hvap), Bartle et al. model ([2]; methyldopa in ScCO2): 56.87 kJ/mol
SMILES: C[C@](N)(Cc1ccc(O)c(O)c1)C(=O)O [methyldopa, Methyldopa]
